From patent US20250353842A1, “BICYCLIC AMINE CDK12 INHIBITORS” (Incyte Corporation, priority 2022, published 2025) come the findings set out here.

In the test the target is CDK12 complexed with Cyclin K (Homo sapiens (Human), UniProt Q9NYV4). Kind of test: CDK enzymatic assay (HTRF, LANCE Ultra kinase assay). In kind it is biochemical. The following applies: 60 minutes pre-incubation, 1 mM ATP. The method, then: The following activity of the CDK enzymes in complex with their respective cyclins we assayed: CDK1 complexed with Cyclin B1; CDK2 complexed with Cyclin E1; CDK4 complexed with Cyclin D1; CDK6 complexed with Cyclin D1; CDK6 complexed with Cyclin D3; CDK9 complexed with Cyclin T1; CDK7 complexed with Cyclin H/MAT1; CDK2 complexed with Cyclin A2; CDK5 complexed with p35; CDK12 complexed with Cyclin K; CDK13 complexed with Cyclin K. These in vitro enzyme activity are assayed using homogeneous time-resolved energy transfer (HTRF), which measures phosphorylation of a peptide substrate. The LANCE® Ultra kinase assay (PerkinElmer) uses a ULight™-labeled EIF4E-binding protein 1 (THR37/46) peptide (DYSTTPGGTLFSTTPGTRI) (SEQ ID NO: 1) substrate and a Europium-labeled anti-phospho-4E-BP1 antibody (CDK2, CDK1, CDK4, CDK6, CDK9, CDK12, CDK13) or ULight™-labeled Myelin Basic Protein peptide (VTPRTPPP) (SEQ ID NO: 2) substrate and a Europium-labeled anti-phospho-MBP antibody (CDK7). Each CDK enzyme activity assays utilized human CDK co-expressed as N-terminal GST-tagged protein with its full length cyclin partner using a baculovirus expression system.
Chain of CDK12 complexed with Cyclin K (Q9NYV4 whole entry): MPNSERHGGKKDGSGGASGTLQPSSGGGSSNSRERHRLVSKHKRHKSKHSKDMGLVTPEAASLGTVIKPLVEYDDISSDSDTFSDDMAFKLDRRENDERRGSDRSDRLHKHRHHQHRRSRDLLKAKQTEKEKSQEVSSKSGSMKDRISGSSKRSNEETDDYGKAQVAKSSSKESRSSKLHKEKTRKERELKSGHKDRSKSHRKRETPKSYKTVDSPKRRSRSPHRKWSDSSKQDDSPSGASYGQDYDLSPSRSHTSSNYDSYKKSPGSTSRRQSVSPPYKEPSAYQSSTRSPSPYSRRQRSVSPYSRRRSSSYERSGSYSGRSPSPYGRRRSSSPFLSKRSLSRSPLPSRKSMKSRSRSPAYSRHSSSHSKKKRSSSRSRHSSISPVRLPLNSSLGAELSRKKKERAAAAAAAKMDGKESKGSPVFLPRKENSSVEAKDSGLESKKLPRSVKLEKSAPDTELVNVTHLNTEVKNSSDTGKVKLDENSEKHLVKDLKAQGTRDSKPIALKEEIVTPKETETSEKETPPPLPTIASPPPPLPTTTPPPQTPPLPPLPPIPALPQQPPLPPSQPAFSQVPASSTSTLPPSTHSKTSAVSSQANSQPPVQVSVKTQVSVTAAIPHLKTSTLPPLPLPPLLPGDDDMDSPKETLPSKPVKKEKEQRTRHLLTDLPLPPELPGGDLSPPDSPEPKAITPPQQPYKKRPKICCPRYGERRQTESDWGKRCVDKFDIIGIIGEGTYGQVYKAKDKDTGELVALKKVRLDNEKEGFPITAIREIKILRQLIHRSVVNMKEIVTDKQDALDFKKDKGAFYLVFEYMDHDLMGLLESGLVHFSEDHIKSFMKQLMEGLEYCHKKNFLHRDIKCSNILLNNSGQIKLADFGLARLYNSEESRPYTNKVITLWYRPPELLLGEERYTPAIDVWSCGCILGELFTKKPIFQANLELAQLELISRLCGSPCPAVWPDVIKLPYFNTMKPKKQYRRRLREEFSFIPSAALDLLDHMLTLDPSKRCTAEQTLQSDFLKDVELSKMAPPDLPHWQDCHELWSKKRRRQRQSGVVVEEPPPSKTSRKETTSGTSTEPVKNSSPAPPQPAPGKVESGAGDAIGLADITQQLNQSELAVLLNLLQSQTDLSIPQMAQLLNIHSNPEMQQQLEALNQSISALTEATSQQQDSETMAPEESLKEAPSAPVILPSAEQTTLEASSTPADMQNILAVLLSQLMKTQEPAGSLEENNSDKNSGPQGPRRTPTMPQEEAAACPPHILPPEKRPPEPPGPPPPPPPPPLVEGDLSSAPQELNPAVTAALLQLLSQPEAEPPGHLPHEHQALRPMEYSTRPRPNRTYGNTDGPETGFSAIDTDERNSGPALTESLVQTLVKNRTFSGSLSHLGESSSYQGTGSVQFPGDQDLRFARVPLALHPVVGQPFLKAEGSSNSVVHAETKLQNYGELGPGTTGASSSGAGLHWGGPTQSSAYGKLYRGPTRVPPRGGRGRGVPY
Chain of CDK12 complexed with Cyclin K (O75909 whole entry partner): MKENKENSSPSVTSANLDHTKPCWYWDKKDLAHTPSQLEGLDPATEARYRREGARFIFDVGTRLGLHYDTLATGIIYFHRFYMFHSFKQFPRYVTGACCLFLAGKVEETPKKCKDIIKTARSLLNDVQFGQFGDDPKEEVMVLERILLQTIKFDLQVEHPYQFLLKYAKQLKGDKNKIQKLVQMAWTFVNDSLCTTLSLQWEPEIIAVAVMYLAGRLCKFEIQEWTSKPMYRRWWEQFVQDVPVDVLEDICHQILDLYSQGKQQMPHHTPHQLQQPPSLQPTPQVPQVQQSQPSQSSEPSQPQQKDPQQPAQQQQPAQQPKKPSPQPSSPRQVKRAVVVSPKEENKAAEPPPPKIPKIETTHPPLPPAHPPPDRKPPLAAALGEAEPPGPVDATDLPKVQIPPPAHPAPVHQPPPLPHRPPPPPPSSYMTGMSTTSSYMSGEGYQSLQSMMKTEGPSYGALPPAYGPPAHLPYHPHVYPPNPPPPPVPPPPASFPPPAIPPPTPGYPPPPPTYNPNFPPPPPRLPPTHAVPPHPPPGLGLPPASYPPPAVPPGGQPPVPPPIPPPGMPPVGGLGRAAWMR
Enzyme was pre-incubated with compounds for 30 minutes (CDK1,2,4,6,9) or 60 minutes (CDK7, CDK12, CDK13) prior to addition of ATP and Ulight-peptide (1 mM and 50 nM final, respectively), in assay buffer containing 50 mM HEPES pH 7.5, 1 mM EGTA, 10 mM MgCl2, 2 mM DTT, 0.05 mg/mL BSA, and 0.01% Tween 20.
The reaction was then incubated for 60-90 minutes at room temperature. The reactions were stopped by the addition of EDTA and Europium labeled antibody, for a final concentration of 15 mM and 1.0-1.5 nM, respectively. HTRF signals were read after 15-120 minutes. A ratio of fluorescence transferred to the labeled substrate (665 nm) relative to fluorescence of the Europium donor (620 nm) represents the extent of phosphorylation. Ratios for treated wells were normalized to DMSO only (100% activity) and no enzyme (0% activity) controls. Normalized data was analyzed using a three or four parameter dose response curve to determine IC50 for each compound and are shown in Table A. Control reference inhibitors were included on each plate.
`N#Cc1cnc2c(c1)ncn2[C@H]1CCC[C@@H](Nc2ncc(C#N)c(-c3cnn(CC(F)F)c3)n2)C1` [9/9A, 3-((1S,3R)-3-((5-Cyano-4-(1-(2,2-difluoroethyl)-1H-pyrazol-4-yl)pyrimidin-2-yl)amino)cyclohexyl)-3H-imidazo[4,5-b]pyridine-6-carbonitrile] showed an IC50 of under 50 nM. Molecule `N#Cc1cnc(N[C@@H]2CCC[C@H](n3cnc4cccc(C#N)c43)C2)nc1-c1cnn(CC(F)F)c1` [13/13A, 1-((1S,3R)-3-((5-Cyano-4-(1-(2,2-difluoroethyl)-1H-pyrazol-4-yl)pyrimidin-2-yl)amino)cyclohexyl)-1H-benzo[d]imidazole-7-carbonitrile] yielded an IC50 of under 50 nM. With `Cc1c(-c2nc(N[C@@H]3CCC[C@H](n4cnc5cc(C#N)cnc54)C3)ncc2C#N)nnn1C` [28/28A, 3-((1S,3R)-3-((5-Cyano-4-(1,5-dimethyl-1H-1,2,3-triazol-4-yl)pyrimidin-2-yl)amino)cyclohexyl)-3H-imidazo[4,5-b]pyridine-6-carbonitrile] the figure was under 50 nM; with `N#Cc1cnc2c(c1)ncn2[C@H]1CCC[C@@H](Nc2ncc(C(F)(F)F)c(-c3cnn(CC(F)F)c3)n2)C1` [Example 1, 3-((1S,3R)-3-((4-(1-(2,2-Difluoroethyl)-1H-pyrazol-4-yl)-5-(trifluoromethyl)pyrimidin-2-yl)amino)cyclohexyl)-3H-imidazo[4,5-b]pyridine-6-carbonitrile], under 50 nM; with `N#Cc1cnc2c(c1)ncn2[C@H]1CC[C@@H](Nc2ncc(C(F)(F)F)c(-c3cnn(CC(F)F)c3)n2)C1` [Example 2, 3-((1S,3R)-3-((4-(1-(2,2-Difluoroethyl)-1H-pyrazol-4-yl)-5-(trifluoromethyl)pyrimidin-2-yl)amino)cyclopentyl)-3H-imidazo[4,5-b]pyridine-6-carbonitrile], over 500 nM. As to `N#Cc1cnc(N[C@@H]2CCC[C@H](n3cnc4ccccc43)C2)nc1-c1cnn(CC(F)F)c1` [Example 3, 2-(((1R,3S)-3-(1H-Benzo[d]imidazol-1-yl)cyclohexyl)amino)-4-(1-(2,2-difluoroethyl)-1H-pyrazol-4-yl)pyrimidine-5-carbonitrile], the IC50 is under 50 nM. In turn, `FC(F)Cn1cc(-c2nc(N[C@@H]3CCC[C@H](n4cnc5cc(C(F)(F)F)cnc54)C3)ncc2C(F)(F)F)cn1` [Example 4, 4-(1-(2,2-Difluoroethyl)-1H-pyrazol-4-yl)-5-(trifluoromethyl)-N-((1R,3S)-3-(6-(trifluoromethyl)-3H-imidazo[4,5-b]pyridin-3-yl)cyclohexyl)pyrimidin-2-amine] registered an IC50 of under 50 nM. With `COC(=O)c1ccc2ncn([C@H]3CCC[C@@H](Nc4ncc(C(F)(F)F)c(-c5cnn(CC(F)F)c5)n4)C3)c2n1` [Example 5, Methyl 3-((1S,3R)-3-((4-(1-(2,2-difluoroethyl)-1H-pyrazol-4-yl)-5-(trifluoromethyl)pyrimidin-2-yl)amino)cyclohexyl)-3H-imidazo[4,5-b]pyridine-5-carboxylate] the figure was under 50 nM; with `COc1ccc2ncn([C@H]3CCC[C@@H](Nc4ncc(C(F)(F)F)c(-c5cnn(CC(F)F)c5)n4)C3)c2n1` [Example 6, 4-(1-(2,2-Difluoroethyl)-1H-pyrazol-4-yl)-N-((1R,3S)-3-(5-methoxy-3H-imidazo[4,5-b]pyridin-3-yl)cyclohexyl)-5-(trifluoromethyl)pyrimidin-2-amine], under 50 nM; with `FC(F)Cn1cc(-c2nc(N[C@@H]3CCC[C@H](n4cnc5cnccc54)C3)ncc2C(F)(F)F)cn1` [Example 7, N-((1R,3S)-3-(1H-Imidazo[4,5-c]pyridin-1-yl)cyclohexyl)-4-(1-(2,2-difluoroethyl)-1H-pyrazol-4-yl)-5-(trifluoromethyl)pyrimidin-2-amine], under 50 nM. For `Cc1ccnc2c1ncn2[C@H]1CCC[C@@H](Nc2ncc(C#N)c(-c3cnn(CC(F)F)c3)n2)C1` [Example 8, 4-(1-(2,2-Difluoroethyl)-1H-pyrazol-4-yl)-2-(((1R,3S)-3-(7-methyl-3H-imidazo[4,5-b]pyridin-3-yl)cyclohexyl)amino)pyrimidine-5-carbonitrile], the IC50 was under 50 nM.

As for `N#Cc1cnc(N[C@@H]2CCC[C@H](n3cnc4cccnc43)C2)nc1-c1cnn(CC(F)F)c1` [Example 11, 2-(((1R,3S)-3-(3H-Imidazo[4,5-b]pyridin-3-yl)cyclohexyl)amino)-4-(1-(2,2-difluoroethyl)-1H-pyrazol-4-yl)pyrimidine-5-carbonitrile], the IC50 is under 50 nM. In turn, `FC(F)Cn1cc(-c2nc(N[C@@H]3CCC[C@H](n4cnc5cccnc54)C3)ncc2C(F)(F)F)cn1` [Example 12, N-((1R,3S)-3-(3H-Imidazo[4,5-b]pyridin-3-yl)cyclohexyl)-4-(1-(2,2-difluoroethyl)-1H-pyrazol-4-yl)-5-(trifluoromethyl)pyrimidin-2-amine] registered an IC50 of under 50 nM. `N#Cc1cnc2c(c1)ncn2[C@H]1CCC[C@@H](Nc2ncc(Cl)c(-c3cnn(CC(F)F)c3)n2)C1` [Example 14, 3-((1S,3R)-3-((5-Chloro-4-(1-(2,2-difluoroethyl)-1H-pyrazol-4-yl)pyrimidin-2-yl)amino)cyclohexyl)-3H-imidazo[4,5-b]pyridine-6-carbonitrile] had an IC50 of under 50 nM. Next, `N#Cc1cnc2c(ccn2[C@H]2CCC[C@@H](Nc3ncc(C(F)(F)F)c(-c4cnn(CC(F)F)c4)n3)C2)c1` [Example 15, 1-((1S,3R)-3-((4-(1-(2,2-Difluoroethyl)-1H-pyrazol-4-yl)-5-(trifluoromethyl)pyrimidin-2-yl)amino)cyclohexyl)-1H-pyrrolo[2,3-b]pyridine-5-carbonitrile]: under 50 nM. As to `N#Cc1ccc2c(ccn2[C@H]2CCC[C@@H](Nc3ncc(C(F)(F)F)c(-c4cnn(CC(F)F)c4)n3)C2)c1` [Example 16, 1-((1S,3R)-3-((4-(1-(2,2-Difluoroethyl)-1H-pyrazol-4-yl)-5-(trifluoromethyl)pyrimidin-2-yl)amino)cyclohexyl)-1H-indole-5-carbonitrile], the IC50 was in the range of 50 to 500 nM. For the molecule `Cc1c(-c2nc(N[C@@H]3CCC[C@H](n4cnc5cccnc54)C3)ncc2C#N)cnn1C` [Example 17, 2-(((1R,3S)-3-(3H-Imidazo[4,5-b]pyridin-3-yl)cyclohexyl)amino)-4-(1,5-dimethyl-1H-pyrazol-4-yl)pyrimidine-5-carbonitrile], the IC50 was 50 to 500 nM. `N#Cc1cnc(N[C@@H]2CCC[C@H](n3cnc4cccnc43)C2)nc1-c1cnn2c1CCC2` [Example 18, 2-(((1R,3S)-3-(3H-Imidazo[4,5-b]pyridin-3-yl)cyclohexyl)amino)-4-(5,6-dihydro-4H-pyrrolo[1,2-b]pyrazol-3-yl)pyrimidine-5-carbonitrile] gave an IC50 of under 50 nM. Molecule `Cc1nn(C)cc1-c1nc(N[C@@H]2CCC[C@H](n3cnc4cccnc43)C2)ncc1C#N` [Example 19, 2-(((1R,3S)-3-(3H-Imidazo[4,5-b]pyridin-3-yl)cyclohexyl)amino)-4-(1,3-dimethyl-1H-pyrazol-4-yl)pyrimidine-5-carbonitrile] displayed an IC50 of over 500 nM.

Molecule `Cn1ncc(-c2nc(N[C@@H]3CCC[C@H](n4cnc5cccnc54)C3)ncc2C#N)c1C#N` [Example 20, 2-(((1R,3S)-3-(3H-Imidazo[4,5-b]pyridin-3-yl)cyclohexyl)amino)-4-(5-cyano-1-methyl-1H-pyrazol-4-yl)pyrimidine-5-carbonitrile] came in with an IC50 of 50 to 500 nM. The molecule `N#Cc1cnc(N[C@@H]2CCC[C@H](n3cnc4cccnc43)C2)nc1-c1c[nH]nc1C1CC1` [Example 21, 2-(((1R,3S)-3-(3H-Imidazo[4,5-b]pyridin-3-yl)cyclohexyl)amino)-4-(3-cyclopropyl-1H-pyrazol-4-yl)pyrimidine-5-carbonitrile] came in with an IC50 of under 50 nM. Next, `Cn1nccc1-c1nc(N[C@@H]2CCC[C@H](n3cnc4cccnc43)C2)ncc1C#N` [Example 22, 2-(((1R,3S)-3-(3H-Imidazo[4,5-b]pyridin-3-yl)cyclohexyl)amino)-4-(1-methyl-1H-pyrazol-5-yl)pyrimidine-5-carbonitrile]: over 500 nM; `Cn1ncc(-c2nc(N[C@@H]3CCC[C@H](n4cnc5cccnc54)C3)ncc2C#N)c1C(F)(F)F` [Example 23, 2-(((1R,3S)-3-(3H-Imidazo[4,5-b]pyridin-3-yl)cyclohexyl)amino)-4-(1-methyl-5-(trifluoromethyl)-1H-pyrazol-4-yl)pyrimidine-5-carbonitrile]: 50 to 500 nM; `CCn1cc(-c2nc(N[C@@H]3CCC[C@H](n4cnc5cccnc54)C3)ncc2C#N)cn1` [Example 24, 2-(((1R,3S)-3-(3H-Imidazo[4,5-b]pyridin-3-yl)cyclohexyl)amino)-4-(1-ethyl-1H-pyrazol-4-yl)pyrimidine-5-carbonitrile]: under 50 nM.

What is called IC50 is the concentration at which inhibition is half-maximal. A higher IC50 goes with weaker potency.
